The text below walks through data of ChEMBL document CHEMBL3638468, “Amides of acetic and propionic acids” (2015).

The experiment concerns the target Neuronal acetylcholine receptor subunit alpha-7 (Rattus norvegicus, UniProt Q05941). As to the kind of experiment: Binding Assay: Rat brain tissue (hippocampus or whole brain) is homogenized in homogenization buffer (10% w/v). [0.32 M sucrose, 1 mM EDTA; 0.1 mM phenylmethylsulfonyl fluoride (PMSF), 0.01% (w/v) NaN3, pH 7.4, 4 C.] at 600 rpm in a glass homogenizer. The homogenate is centrifuged (1000xg, 4 C., 10 min) and the supernatant is removed. The pellet is resuspended (20% w/v) and the suspension is centrifuged (1000xg, 4 C., 10 mM). The two supernatants are combined and centrifuged (15 000xg, 4 C., 30 min). The pellet obtained in this way is referred to as the P2 fraction.The P2 pellet is washed twice with binding buffer (50 mM Tris-HCl, 1 mM MgCl2, 120 mM NaCl, 5 mM KCl, 2 mM CaCl2, pH 7.4), and centrifuged (15 000xg, 4 C., 30 min).The P2 membranes are resuspended in binding buffer and incubated in a volume of 250 ul (amount of membrane protein 0.1-0.5 mg) in the presence of 1-5 nM [3H]methyllycaconitine, 0.1% (w/v) BSA (bovine serum albumin) and various concentrations of the test substance. The experiment is classed as tissue-based.

Chain of Neuronal acetylcholine receptor subunit alpha-7 (Q05941 whole entry): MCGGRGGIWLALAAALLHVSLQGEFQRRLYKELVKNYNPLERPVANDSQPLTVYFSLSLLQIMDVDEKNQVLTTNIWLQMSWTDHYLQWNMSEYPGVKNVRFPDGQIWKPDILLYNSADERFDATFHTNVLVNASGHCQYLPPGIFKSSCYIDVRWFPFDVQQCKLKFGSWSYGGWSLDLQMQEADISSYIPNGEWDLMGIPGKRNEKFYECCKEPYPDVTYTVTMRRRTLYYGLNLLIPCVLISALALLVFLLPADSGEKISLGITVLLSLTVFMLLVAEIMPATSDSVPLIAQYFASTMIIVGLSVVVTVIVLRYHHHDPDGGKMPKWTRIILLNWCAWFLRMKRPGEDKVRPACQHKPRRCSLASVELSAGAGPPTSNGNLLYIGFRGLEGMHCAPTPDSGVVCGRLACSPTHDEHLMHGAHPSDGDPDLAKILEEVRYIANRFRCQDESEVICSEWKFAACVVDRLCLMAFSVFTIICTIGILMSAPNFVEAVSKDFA

Usually Ki stands for the equilibrium dissociation constant of an inhibitor or competing ligand from its target. For `O=C(CC1CN2CCC1CC2)Nc1cc2ccc(Br)cc2s1` (stereo unspecified), the Ki turned out to be 200 nM.
